Experimental findings from patent US11547740B2, “Histone deacetylase (HDAC) inhibitor up-regulates car expression and targeted antigen intensity, increasing antitumor efficacy” (Baylor College of Medicine, priority 2013, dated 2023) are described below.

Common to all, as to assay type: cell-based, human
In experiment [1] the test system is MUC1 expression on CAR-MUC1-resistant CAPAN1 cells. In words: MUC1 antigen expression by flow after decitabine treatment. As to conditions: 1 μM, after 4 days of treatment; 3.5 before exposure. As to the method:
One million CAPAN1 cells were fixed with 80% methanol and washed with 0.1% tween-PBS. 1 ug of anti-MUC1 antibody (Abcam Inc, Cambridge, Mass.) was added and incubated at RT for 30 mins. Then cultures were washed and incubated with 0.4 ug of a goat anti-mouse IgG APC antibody (BD Pharmingen, San Jose, Calif.) for 20 mins at 4° C. in the dark. Cells were then washed twice and analyzed.
CAPAN1 cells were culture in a T175 flask using complete IMDM media contained 1 μM 5-Aza-2′-deoxycytidine-decitabine-(Sigma-aldrich Inc., Saint Louis, Mo.) for 4 days, with fresh media+decitabine replenished daily. Subsequently, decitabine-treated CAPAN1 cells were rested for 2 days in complete IMDM, and then co-cultured with CAR-MUC1 T cells.
Finally, to determine whether CAR-T cell potency could be improved by combination with conventional epigenetic modulators, which can increase TAA expression by demethylating DNA, CAPAN1 cells were cultured that had been previously treated with CAR-MUC1 T cells and consequently expressed only low levels of the target antigen, with 1 μM of decitabine, a hypomethylating agent.

In experiment [2] the test system is CAPAN1 cells initially treated with CAR-MUC1 T cells. In words: 72 hr co-culture of decitabine-treated resistant CAPAN1 cells with CAR-MUC1 T cells. The conditions noted are these: 1 μM for 4 days, then 72 hr co-culture, E:T 5:1. An excerpt: Data is reported as the mean±SD; n=4. (b) To determine whether decitabine exposure would upregulate MUC1 expression in this resistant population we evaluated antigen expression, by flow, on CAR-resistant cells (grey histogram) and those cultured in decitabine (black histogram). To next assess whether decitabine treatment resensitized CAPAN1 cells to CAR-MUC1 T cells we performed a 72-hr co-culture experiment using CAPAN1 cells initially treated with CAR-MUC1 T cells (c) then either left untreated or cultured with decitabine as targets (E:T 5:1). After 72-hours retreatment with CAR-MUC1 T cells, residual tumor cells were again quantified by flow. Data is reported as the mean±SD; n=2.
CAPAN1, 293T, 293T-MUC1-mOrange or 293T-PSCA-GFP, were used as targets. Briefly, GFP/CAPAN1 cells were mixed with either OKT3/CD28 blasts or CAR-modified T cells at a 1:5 ratio in the presence of IL2 (50 U/ml) in complete media. For our engineered tumor model, 293T-MUC1-mOrange and 293T-PSCA-GFP (or control 293T cells alone) were mixed at 1:1 ratio then OKT3/CD28 blasts or CAR-modified T cells were added to the mixture; 10:1 (T cells:tumor cell), in the presence of IL2 (50 U/ml) in complete media. After 72 hours all residual cells were collected, counted, stained and then analyzed by flow cytometry (Gallios; Beckman Coulter Inc., Brea, Calif.). […]

In experiment [3] the test system is CAR-MUC1 expression on effector T cells. In words: CAR expression on modified T cells cultured with decitabine. As to conditions: after one day and several days. As to the method: T cells were analyzed 3-4 weeks after the generation of the culture by surface-stained with monoclonal antibodies to: CD3, CD4, CD8, CD19, CD56, CD27, CD28, CD45RO, and CD62L (Becton Dickinson B D, Franklin Lakes, N.J.). Cells were washed once with PBS supplemented with 2% FBS, pelleted, and antibodies added in saturating amounts (10 ul). To detect CAR-transduced cells, T cells were stained with a monoclonal antibody Fc-specific cyanine-Cy5-conjugated antibody (Jackson Immuno Research Laboratories, Inc., West Grove, Pa.), which recognizes the IgG1-CH2CH3 component of the receptor. Cells were analyzed using a Gallios Flow cytometer and the data analyzed using Kaluza software (Beckman Coulter Inc., Brea, Calif.).
It is illustrated therein that one can modulate the intensity of CAR-MUC1 expression on effector cells when the effector cells are cultured with decitabine.

On to `Nc1ncn([C@H]2C[C@H](O)[C@@H](CO)O2)c(=O)n1` [decitabine, 5-Aza-2′-deoxycytidine], for which the “intensity of MUC1 expression” value in experiment [1] was 26.0 relative mean fluorescence intensity. In addition, in experiment [2], the “re-sensitization of resistant tumor cells to CAR-MUC1 T cell killing” value is “re-sensitizing previously resistant tumor cells to CAR-MUC1 T cell killing”. Further, in experiment [3], the “CAR-MUC1 expression on effector cells” value is on record as “increase in expression”.
